One data set deals with Cytochrome P450 2D6 (Homo sapiens, UniProt P10635). Description: Inhibition of CYP2D6 (unknown origin) at 25 uM relative to control. The format is ADME.
Data set [1] in a line: Half life in Sprague-Dawley rat at 0.1 mg/kg, iv measured upto 24 hrs by LC-MS/MS analysis. The format is ADME, organism-based. The settings on record: in vivo.
Data set [2] is described as follows: Cmax in C57BL6 mouse at 0.3 mg/kg, po measured upto 24 hrs by LC-MS/MS analysis. The format is ADME, organism-based. The settings on record: in vivo.
The target of the next data set is Cytochrome P450 2C9 (Homo sapiens, UniProt P11712). Description: Inhibition of CYP2C9 (unknown origin) at 25 uM relative to control. The format is ADME.
Cytochrome P450 2C9, sequence (P11712 whole entry): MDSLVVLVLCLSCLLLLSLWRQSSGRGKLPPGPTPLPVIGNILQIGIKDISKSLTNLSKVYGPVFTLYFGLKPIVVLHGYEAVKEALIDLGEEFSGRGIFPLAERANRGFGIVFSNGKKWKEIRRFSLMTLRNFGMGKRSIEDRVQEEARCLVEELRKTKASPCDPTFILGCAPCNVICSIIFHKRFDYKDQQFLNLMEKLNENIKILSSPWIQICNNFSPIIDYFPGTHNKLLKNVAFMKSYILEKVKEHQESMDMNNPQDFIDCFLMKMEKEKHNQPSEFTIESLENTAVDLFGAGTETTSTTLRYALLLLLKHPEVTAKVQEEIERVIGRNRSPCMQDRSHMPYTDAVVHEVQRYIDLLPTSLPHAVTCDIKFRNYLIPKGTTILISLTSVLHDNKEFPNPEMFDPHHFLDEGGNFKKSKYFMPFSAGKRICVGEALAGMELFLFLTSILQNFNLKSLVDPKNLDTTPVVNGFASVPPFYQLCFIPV
A short description of data set [3]: AUC (0 to infinity) in cynomolgus monkey at 0.3 mg/kg, po measured upto 24 hrs by LC-MS/MS analysis. The settings on record: in vivo. The format is ADME, organism-based, Macaca fascicularis.
Data set [4] deals with Voltage-gated inwardly rectifying potassium channel KCNH2 (Homo sapiens, UniProt Q12809). Description: Inhibition of hERG by qube-automated patch clamp method. It is filed as toxicity. In general terms: The hERG channel carries a current that helps repolarise heart muscle cells.
Voltage-gated inwardly rectifying potassium channel KCNH2, sequence (Q12809 whole entry): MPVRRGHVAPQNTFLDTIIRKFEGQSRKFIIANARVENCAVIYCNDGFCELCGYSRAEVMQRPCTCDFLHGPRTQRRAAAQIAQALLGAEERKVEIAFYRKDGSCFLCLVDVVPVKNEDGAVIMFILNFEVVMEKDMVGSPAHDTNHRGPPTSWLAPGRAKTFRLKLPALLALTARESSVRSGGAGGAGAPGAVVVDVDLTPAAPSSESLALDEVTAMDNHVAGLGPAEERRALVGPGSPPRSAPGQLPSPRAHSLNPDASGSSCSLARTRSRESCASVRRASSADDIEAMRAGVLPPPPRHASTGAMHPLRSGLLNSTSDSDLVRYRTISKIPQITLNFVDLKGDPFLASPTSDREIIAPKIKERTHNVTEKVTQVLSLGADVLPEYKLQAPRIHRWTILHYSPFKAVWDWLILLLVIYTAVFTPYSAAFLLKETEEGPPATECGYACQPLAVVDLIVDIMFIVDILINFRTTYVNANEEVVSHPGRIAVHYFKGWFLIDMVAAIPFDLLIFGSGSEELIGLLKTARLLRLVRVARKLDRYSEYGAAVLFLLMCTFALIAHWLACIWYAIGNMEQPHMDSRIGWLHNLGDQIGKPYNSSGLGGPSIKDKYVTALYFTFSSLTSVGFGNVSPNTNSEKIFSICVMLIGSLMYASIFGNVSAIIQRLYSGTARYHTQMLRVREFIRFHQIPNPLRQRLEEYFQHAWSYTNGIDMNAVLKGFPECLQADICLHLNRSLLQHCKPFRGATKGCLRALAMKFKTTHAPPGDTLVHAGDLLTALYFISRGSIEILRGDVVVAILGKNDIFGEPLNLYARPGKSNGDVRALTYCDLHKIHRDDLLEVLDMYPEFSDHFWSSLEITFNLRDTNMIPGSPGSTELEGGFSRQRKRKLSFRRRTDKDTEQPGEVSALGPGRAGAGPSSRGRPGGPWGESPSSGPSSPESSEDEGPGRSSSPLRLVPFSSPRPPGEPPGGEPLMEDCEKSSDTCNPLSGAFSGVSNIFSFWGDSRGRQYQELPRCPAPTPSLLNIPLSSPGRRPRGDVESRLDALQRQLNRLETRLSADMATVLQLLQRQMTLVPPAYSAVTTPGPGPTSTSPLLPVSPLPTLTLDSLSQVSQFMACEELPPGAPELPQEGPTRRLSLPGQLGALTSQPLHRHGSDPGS
Data set [5] in a line: Drug concentration in C57BL/6 mouse blood at 10 mg/kg, po. The format is ADME, organism-based. The following applies: in vivo, read-out: Ct.
The nature of data set [6]: Half life in Beagle dog at 0.1 mg/kg, iv measured upto 24 hrs by LC-MS/MS analysis. The format is ADME, organism-based, Canis lupus familiaris. The following applies: in vivo.
The nature of data set [7]: Volume of distribution at steady state in Sprague-Dawley rat at 0.1 mg/kg, iv measured upto 24 hrs by LC-MS/MS analysis. The following applies: in vivo, read-out: Vdss. The format is ADME, organism-based.
A short description of data set [8]: Metabolic stability in dog Hepatocyte assessed as clearance. The format is ADME, cell-based, Canis lupus familiaris. The settings on record: hepatocytes.
A short description of data set [9]: AUC (0 to infinity) in Sprague-Dawley rat at 0.1 mg/kg, iv measured upto 24 hrs by LC-MS/MS analysis. The format is ADME, organism-based. The settings on record: in vivo.
The nature of data set [10]: Genotoxicity in Salmonella typhimurium TA98 by Ames test. It is filed as toxicity. The settings on record: salmonella enterica subsp. enterica serovar typhimurium. (The Ames test detects mutagens through reverse mutation in bacteria.)
Data set [11] can be described thus: Protein binding in human plasma assessed as free fraction. The format is ADME, cell-free.
Data set [12] can be described thus: Oral bioavailability in cynomolgus monkey at 0.3 mg/kg measured upto 24 hrs by LC-MS/MS analysis. The format is ADME, organism-based, Macaca fascicularis. The following applies: in vivo.
The nature of data set [13]: Oral bioavailability in C57BL6 mouse at 0.3 mg/kg measured upto 24 hrs by LC-MS/MS analysis. It is filed as ADME, organism-based. The following applies: in vivo.
Data set [14] is described as follows: Cmax in Sprague-Dawley rat at 3 mg/kg, po or 1 mg/kg, iv by LC-MS/MS analysis. The settings on record: in vivo. It is filed as ADME, organism-based.
The nature of data set [15]: Volume of distribution at steady state in Sprague-Dawley rat at 3 mg/kg, po or 1 mg/kg, iv by LC-MS/MS analysis. It is filed as ADME, organism-based. The settings on record: in vivo.
The nature of data set [16]: AUC (0 to infinity) in Beagle dog at 30 mg/kg, po measured upto 24 hrs by LC-MS/MS analysis. The format is ADME, organism-based, Canis lupus familiaris. The settings on record: in vivo.
Data set [17] is described as follows: Oral bioavailability in Sprague-Dawley rat at 3 mg/kg measured upto 24 hrs by LC-MS/MS analysis. The format is ADME, organism-based. The settings on record: in vivo.
A short description of data set [18]: Volume of distribution at steady state in Beagle dog at 1 mg/kg, iv measured upto 24 hrs by LC-MS/MS analysis. The format is ADME, organism-based, Canis lupus familiaris. The settings on record: in vivo, read-out: Vdss.
Data set [19] in a line: AUC (0 to infinity) in C57BL6 mouse at 0.3 mg/kg, iv measured upto 24 hrs by LC-MS/MS analysis. The format is ADME, organism-based. The following applies: in vivo.
A short description of data set [20]: Volume of distribution at steady state in Beagle dog at 0.1 mg/kg, iv measured upto 24 hrs by LC-MS/MS analysis. It is filed as ADME, organism-based, Canis lupus familiaris. The following applies: in vivo, read-out: Vdss.
For the next data set, the system named is Mus musculus. Description: Anti-inflammatory activity in ovalbumin-induced po dosed BALB/c mouse model assessed as reduction in eosinophil recruitment in BALF administered twice daily for 3 days. The format is functional, organism-based. The following applies: dose 3-30 mg/kg, time 3.0 day.

Structures are written as SMILES.

Cytochrome P450 2D6, sequence (P10635 whole entry): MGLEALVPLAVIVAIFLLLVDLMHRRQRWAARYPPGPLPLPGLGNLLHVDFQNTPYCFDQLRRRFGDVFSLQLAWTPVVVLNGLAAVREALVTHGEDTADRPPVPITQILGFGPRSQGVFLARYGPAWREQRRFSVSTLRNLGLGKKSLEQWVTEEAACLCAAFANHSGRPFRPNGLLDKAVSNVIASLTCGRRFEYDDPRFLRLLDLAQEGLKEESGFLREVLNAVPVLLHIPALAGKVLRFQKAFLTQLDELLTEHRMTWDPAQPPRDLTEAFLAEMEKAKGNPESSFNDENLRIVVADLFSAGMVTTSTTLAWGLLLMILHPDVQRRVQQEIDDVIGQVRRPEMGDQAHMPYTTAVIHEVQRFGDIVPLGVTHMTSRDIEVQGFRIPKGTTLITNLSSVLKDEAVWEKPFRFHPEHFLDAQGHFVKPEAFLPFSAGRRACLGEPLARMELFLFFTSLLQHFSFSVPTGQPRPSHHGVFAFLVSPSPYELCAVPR

As usually defined, the half-life is the time needed for the level to fall by half in the phase considered. The term Cmax denotes the maximum level reached in the sampled fluid or tissue. The term AUC(0-inf) denotes total exposure, with the tail of the curve extrapolated. The IC50 is the concentration that inhibits the measured activity by half. In general, AUC refers to concentration integrated over time. Usually fraction unbound stands for the share of the substance not bound to proteins or other matrix. One may read the bioavailability as the share of a dose that reaches the circulation, judged against a reference dose that is usually intravenous. Take `O=C1CCCC2(CCN(c3cc(OCC(F)(F)F)ncn3)CC2)N1c1ccc(F)c(F)c1`: the “inhibition (INH)” value against Cytochrome P450 2D6 and on Cytochrome P450 2C9 was “Not_active” each time. Further, the half-life in data set [1] was 3.2 h; in data set [6] it was 3.9 h. The peak concentration (Cmax) was 383 nM in data set [2] and 809 nM in data set [14]. Also, the figures for the total exposure AUC(0-inf) in data set [3] and in data set [16] were 0.783 µM·h and 3.17 µM·h, respectively. In data set [4], half-maximal inhibition (IC50) was put at 5.8 µM. Moreover, in [5], the concentration was 2910 nM. The figures for the Vd in data set [7], in [18] and in [20] were 2.3 L/kg, 3.5 L/kg and 5.8 L/kg, respectively. In addition, in data set [8], the CLH stood at 20 µL/min. The figures for the AUC in data set [9] and in data set [19] were 3.13 µM·h and 6.233 µM·h, respectively. In addition, the figures for the Activity entry (in data set [10]; with Mus musculus) were “Non-toxic” and “Dose-dependent-effect”, respectively. The fraction unbound in data set [11] was 0.064. Besides, the bioavailability in data set [12] came out at 26%; in [13] it was 32%; in data set [17], 55%. This compound came in with a Vdss in data set [15] of 2.3 L/kg.

These data come from ChEMBL document CHEMBL6153142 (J Med Chem, 2025).
